Here are results for 44 compounds from patent publication US8754073B2, “Substituted piperazino-dihydrothienopyrimidines” (Boehringer Ingelheim International GmbH, priority 2007, dated 2014).

In general, inhibition refers to the relative decrease from the control value, in per cent.

Sequence of PDE4B (Q07343 whole entry, species assumed): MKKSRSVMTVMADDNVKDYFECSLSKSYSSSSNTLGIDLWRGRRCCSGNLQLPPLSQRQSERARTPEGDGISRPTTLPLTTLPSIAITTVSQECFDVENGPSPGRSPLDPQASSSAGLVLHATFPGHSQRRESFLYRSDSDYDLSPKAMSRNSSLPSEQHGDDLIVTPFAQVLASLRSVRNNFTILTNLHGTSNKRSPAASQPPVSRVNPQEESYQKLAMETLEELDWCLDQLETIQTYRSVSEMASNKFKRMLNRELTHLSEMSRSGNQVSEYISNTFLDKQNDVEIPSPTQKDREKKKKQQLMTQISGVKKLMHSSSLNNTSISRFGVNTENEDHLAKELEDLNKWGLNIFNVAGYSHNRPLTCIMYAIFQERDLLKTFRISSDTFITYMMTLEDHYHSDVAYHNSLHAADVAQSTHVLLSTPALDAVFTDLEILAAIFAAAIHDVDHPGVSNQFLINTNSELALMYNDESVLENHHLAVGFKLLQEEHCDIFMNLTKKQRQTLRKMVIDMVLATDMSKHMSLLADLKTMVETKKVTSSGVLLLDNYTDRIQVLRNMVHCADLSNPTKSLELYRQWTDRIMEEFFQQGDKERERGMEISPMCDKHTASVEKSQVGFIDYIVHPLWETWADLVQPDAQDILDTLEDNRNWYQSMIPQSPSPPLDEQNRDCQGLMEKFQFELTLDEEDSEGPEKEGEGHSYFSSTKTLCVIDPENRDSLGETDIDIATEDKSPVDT

The test addresses PDE4B (Homo sapiens, UniProt Q07343). The experiment in a line: Scintillation Proximity Assay (SPA) of PDE4B enzyme activity ([H3]-cAMP cleavage). In kind it is biochemical. Particulars: test substance 1 μM; one-hour incubation with [H3]-cAMP at 30° C. Summed up:
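SPA read-out: [H3]-cAMP incubated with PDE4B in assay buffer for 1 h at 30 °C, with and without test compound at 1 μM. Reaction stopped by adding yttrium silicate beads that bind the [H3]-AMP product; after 45 min settling, scintillation counted. Value is % inhibition at 1 μM.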
On the technique in general: Scintillation proximity formats need no separation of bound from free tracer.
In the case of `Cc1cn(C)nc1CN(C)C(=O)c1ccc(C2CCN(c3nc4c(c(NC5CCOCC5)n3)[S+]([O-])CC4)CC2)cc1` (centres unmarked) [Example 226], at 1 µM the inhibition was 95%.

The compound `O=C(c1ccc(C2CCN(c3nc4c(c(NC5CCOCC5)n3)[S+]([O-])CC4)CC2)cc1)N1CCOCC1` (centres unmarked) [Example 227] yielded an inhibition at 1 µM of 83%.

In the case of `CN1CCC(N(C)C(=O)c2ccc(C3CCN(c4nc5c(c(NC6CCOCC6)n4)[S+]([O-])CC5)CC3)cc2)CC1` (centres unmarked) [Example 228], at 1 µM the inhibition was 94%.

Compound `CN(C(=O)c1ccc(C2CCN(c3nc4c(c(NC5CCOCC5)n3)[S+]([O-])CC4)CC2)cc1)C1CC1` (centres unmarked) [Example 229, N-cyclopropyl-N-methyl-4-{1-[5-oxo-4-(tetrahydropyran-4-ylamino)-6,7-dihydro-5H-5λ^4-thieno[3,2-d]pyrimidin-2-yl]-piperidin-4-yl}-benzamide] showed an inhibition at 1 µM of 94%.

`Cc1nn(C)c(C)c1CNC(=O)c1ccc(C2CCN(c3nc4c(c(NC5CCOCC5)n3)[S+]([O-])CC4)CC2)cc1` (centres unmarked) [Example 230] yielded an inhibition at 1 µM of 81%.

The compound `CC(C)(C)OC(=O)NC1CC1Nc1nc(N2CCC(c3ccc(Cl)cc3)CC2)nc2c1[S+]([O-])CC2` (centres unmarked) [Example 231, tert-butyl (2-{2-[4-(4-chlorophenyl)-piperidin-1-yl]-5-oxo-6,7-dihydro-5H-5λ^4-thieno[3,2-d]pyrimidin-4-ylamino}-cyclopropyl)-carbamidate] yielded an inhibition at 1 µM of 94%.

Take `NC1CC1Nc1nc(N2CCC(c3ccc(Cl)cc3)CC2)nc2c1[S+]([O-])CC2` (centres unmarked) [Example 233, N-{2-[4-(4-Chlorophenyl)-Piperidin-1-Yl]-5-Oxo-6,7-Dihydro-5H-5λ^4-Thieno[3,2-d]Pyrimidin-4-Yl}-Cyclopropan-1,2-Diamine]: the inhibition at 1 µM amounted to 93%.

Compound `CCN1CCc2ccc(OC3CCN(c4nc5c(c(NC6CCOCC6)n4)[S+]([O-])CC5)CC3)cc2CC1` (centres unmarked) [Example 234] displayed an inhibition at 1 µM of 95%.

As for `CC(C)N1CCc2ccc(OC3CCN(c4nc5c(c(NC6CCOCC6)n4)[S+]([O-])CC5)CC3)cc2CC1` (centres unmarked) [Example 235], the inhibition at 1 µM was 87%.

Consider `CC(C)(NC(=O)c1ccc(OC2CCN(c3nc4c(c(NC5CCOCC5)n3)[S+]([O-])CC4)CC2)cc1)c1ccncc1` (centres unmarked) [Example 236], for which at 1 µM the inhibition was 95%.

Regarding `CN(C(=O)c1ccc(OC2CCN(c3nc4c(c(NC5CCOCC5)n3)[S+]([O-])CC4)CC2)cc1)C1CCOCC1` (centres unmarked) [Example 237], the inhibition at 1 µM stood at 95%.

As for `O=C(c1ccc(OC2CCN(c3nc4c(c(NC5CCOCC5)n3)[S+]([O-])CC4)CC2)cc1)N(C1CCOCC1)C1CC1` (centres unmarked) [Example 238], at 1 µM the inhibition was 95%.

Compound `Cc1cn(C)nc1CN(C)C(=O)c1ccc(OC2CCN(c3nc4c(c(NC5CCOCC5)n3)[S+]([O-])CC4)CC2)cc1` (centres unmarked) [Example 239] displayed an inhibition at 1 µM of 94%.

On to `O=C(c1ccc(OC2CCN(c3nc4c(c(NC5CCOCC5)n3)[S+]([O-])CC4)CC2)cc1)N1CCOCC1` (centres unmarked) [Example 240], for which the inhibition at 1 µM stood at 94%.

`CN1CCC(N(C)C(=O)c2ccc(OC3CCN(c4nc5c(c(NC6CCOCC6)n4)[S+]([O-])CC5)CC3)cc2)CC1` (centres unmarked) [Example 241] displayed an inhibition at 1 µM of 93%.

Take `CN(C(=O)c1ccc(OC2CCN(c3nc4c(c(NC5CCOCC5)n3)[S+]([O-])CC4)CC2)cc1)C1CC1` (centres unmarked) [Example 242, N-Cyclopropyl-N-Methyl-4-{1-[5-Oxo-4-(Tetrahydropyran-4-Ylamino)-6,7-Dihydro-5H-5λ^4-Thieno[3,2-d]Pyrimidin-2-Yl]-Piperidin-4-Yloxy}-Benzamide]: at 1 µM the inhibition was 94%.

For `Cc1nn(C)c(C)c1CNC(=O)c1ccc(OC2CCN(c3nc4c(c(NC5CCOCC5)n3)[S+]([O-])CC4)CC2)cc1` (centres unmarked) [Example 243], the inhibition at 1 µM worked out at 94%.

`Cc1nn(C)cc1C(C)NC(=O)c1ccc(OC2CCN(c3nc4c(c(NC5CCOCC5)n3)[S+]([O-])CC4)CC2)cc1` (centres unmarked) [Example 244] gave an inhibition at 1 µM of 95%.

`N[C@@H]1CC1Nc1nc(N2CCC(c3ccc(Cl)cc3)CC2)nc2c1[S+]([O-])CC2` (some centres unmarked) [Example 245, N-{2-[4-(4-Chlorophenyl)-Piperidin-1-Yl]-5-Oxo-6,7-Dihydro-5H-5λ^4-Thieno[3,2-d]Pyrimidin-4-Yl}-Cyclopropan-1,2-Diamine] showed an inhibition at 1 µM of 68%.

Turning to `CN1C[C@@H](Nc2nc(N3CCC(CO)(c4ccc(Cl)cc4)CC3)nc3c2[S+]([O-])CC3)CCC1=O` (some centres unmarked) [Example 246, 5-{2-[4-(4-Chlorophenyl)-4-Hydroxymethylpiperidin-1-Yl]-5-Oxo-6,7-Dihydro-5H-5λ^4-Thieno[3,2-d]Pyrimidin-4-Ylamino}-1-Methyl Piperidin-2-One], 1 µM produced 93% inhibition.

Take `O=C(c1cccc(C2CCN(c3nc4c(c(NC5CCOCC5)n3)[S+]([O-])CC4)CC2)c1)N1CCOCC1` (centres unmarked) [Example 247]: the inhibition at 1 µM is 90%.

As to `CN1CCC(N(C)C(=O)c2cccc(C3CCN(c4nc5c(c(NC6CCOCC6)n4)[S+]([O-])CC5)CC3)c2)CC1` (centres unmarked) [Example 248], the inhibition at 1 µM is 88%.

Turning to `CN(C(=O)c1cccc(C2CCN(c3nc4c(c(NC5CCOCC5)n3)[S+]([O-])CC4)CC2)c1)C1CC1` (centres unmarked) [Example 249, N-cyclopropyl-N-methyl-3-{1-[5-oxo-4-(tetrahydropyran-4-ylamino)-6,7-dihydro-5H-5λ^4-thieno[3,2-d]pyrimidin-2-yl]-piperidin-4-yl}-benzamide], at 1 µM the inhibition was 93%.

`Cc1nn(C)c(C)c1CNC(=O)c1cccc(C2CCN(c3nc4c(c(NC5CCOCC5)n3)[S+]([O-])CC4)CC2)c1` (centres unmarked) [Example 250]: the inhibition at 1 µM amounted to 92%.

As for `Cc1nn(C)cc1C(C)NC(=O)c1cccc(C2CCN(c3nc4c(c(NC5CCOCC5)n3)[S+]([O-])CC4)CC2)c1` (centres unmarked) [Example 251], the inhibition at 1 µM amounted to 90%.

Take `CN1C[C@@H](Nc2nc(N3CCC(C(=O)N4CCOCC4)(c4ccccc4)CC3)nc3c2[S+]([O-])CC3)CCC1=O` (some centres unmarked) [Example 252, 1-Methyl-5-{2-[4-(Morpholine-4-Carbonyl)-4-Phenyl Piperidin-1-Yl]-5-Oxo-6,7-Dihydro-5H-5λ^4-Thieno[3,2-d]Pyrimidin-4-Ylamino}-Piperidin-2-One]: testing at 1 µM gave an inhibition of 92%.

Compound `CN1C[C@@H](Nc2nc(N3CCC(CNS(C)(=O)=O)(c4ccccc4)CC3)nc3c2[S+]([O-])CC3)CCC1=O` (some centres unmarked) [Example 253, N-{1-[4-(1-Methyl-6-Oxo-Piperidin-3-Ylamino)-5-Oxo-6,7-Dihydro-5H-5λ^4-Thieno[3,2-d]Pyrimidin-2-Yl]-4-Phenylpiperidin-4-Ylmethyl}-Methanesulphonamide] came in with an inhibition at 1 µM of 92%.

In turn, `CN1C[C@@H](Nc2nc(N3CCC(O)(c4ccc(Cl)cc4)CC3)nc3c2[S+]([O-])CC3)CCC1=O` (some centres unmarked) [Example 254] returned an inhibition at 1 µM of 92%.

As to `CC(C)(NC(=O)c1cccc(C2CCN(c3nc4c(c(NC5CCOCC5)n3)[S+]([O-])CC4)CC2)c1)c1ccncc1` (centres unmarked) [Example 255], the inhibition at 1 µM came to 93%.

In turn, `CN(C(=O)c1cccc(C2CCN(c3nc4c(c(NC5CCOCC5)n3)[S+]([O-])CC4)CC2)c1)C1CCOCC1` (centres unmarked) [Example 256] returned an inhibition at 1 µM of 91%.

Consider `O=C(c1cccc(C2CCN(c3nc4c(c(NC5CCOCC5)n3)[S+]([O-])CC4)CC2)c1)N(C1CCOCC1)C1CC1` (centres unmarked) [Example 257], for which the inhibition at 1 µM is 94%.

`Cc1cn(C)nc1CN(C)C(=O)c1cccc(C2CCN(c3nc4c(c(NC5CCOCC5)n3)[S+]([O-])CC4)CC2)c1` (centres unmarked) [Example 258]: the inhibition at 1 µM was found to be 93%.

As for `Cc1nn(C)cc1CNC(=O)c1cccc(C2CCN(c3nc4c(c(NC5CCOCC5)n3)[S+]([O-])CC4)CC2)c1` (centres unmarked) [Example 259], testing at 1 µM gave an inhibition of 92%.

In turn, `COCC1(c2ccc(Cl)cc2)CCN(c2nc3c(c(N[C@H]4CCC(=O)N(C)C4)n2)[S+]([O-])CC3)CC1` (some centres unmarked) [Example 260, 5-{2-[4-(4-chlorophenyl)-4-methoxymethylpiperidin-1-yl]-5-oxo-6,7-dihydro-5H-5μ^4-thieno[3,2-d]pyrimidin-4-ylamino}-1-methylpiperidin-2-one] registered an inhibition at 1 µM of 96%.

On to `COC1(c2ccc(Cl)cc2)CCN(c2nc3c(c(N[C@H]4CCC(=O)N(C)C4)n2)[S+]([O-])CC3)CC1` (some centres unmarked) [Example 261, 5-{2-[4-(4-chlorophenyl)-4-methoxypiperidin-1-yl]-5-oxo-6,7-dihydro-5H-5λ^4-thieno[3,2-d]pyrimidin-4-ylamino}-1-methylpiperidin-2-one], for which testing at 1 µM gave an inhibition of 95%.

`Cc1nn(C)cc1CNC(=O)c1ccc(C2CCN(c3nc4c(c(NC5CCOCC5)n3)[S+]([O-])CC4)CC2)cc1` (centres unmarked) [Example 262] showed an inhibition at 1 µM of 94%.

Regarding `Cc1nn(C)cc1CNC(=O)c1ccc(OC2CCN(c3nc4c(c(NC5CCOCC5)n3)[S+]([O-])CC4)CC2)cc1` (centres unmarked) [Example 263], the inhibition at 1 µM came to 94%.

As for `CN1C[C@@H](Nc2nc(N3CCC(Oc4ccncc4)CC3)nc3c2[S+]([O-])CC3)CCC1=O` (some centres unmarked) [Example 264], at 1 µM the inhibition was 94%.

In the case of `CN1C[C@@H](Nc2nc(N3CCC(Oc4ccc(Cl)cc4)CC3)nc3c2[S+]([O-])CC3)CCC1=O` (some centres unmarked) [Example 265], the inhibition at 1 µM came to 89%.

For the compound `CC(C)c1ccccc1OC1CCN(c2nc3c(c(N[C@H]4CCC(=O)N(C)C4)n2)[S+]([O-])CC3)CC1` (some centres unmarked) [Example 266], the inhibition at 1 µM turned out to be 95%.

With `CC(C)c1ccc(OC2CCN(c3nc4c(c(N[C@H]5CCC(=O)N(C)C5)n3)[S+]([O-])CC4)CC2)cc1` (some centres unmarked) [Example 267], the inhibition at 1 µM was found to be 78%.

The compound `[O-][S+]1CCc2nc(N3CCC(Oc4ccncc4)CC3)nc(NC3CCOCC3)c21` (centres unmarked) [Example 268] returned an inhibition at 1 µM of 80%.

`CC(C)c1ccc(OC2CCN(c3nc4c(c(NC5CCOCC5)n3)[S+]([O-])CC4)CC2)cc1` (centres unmarked) [Example 269]: at 1 µM the inhibition was 94%.

For the compound `CN1C[C@@H](Nc2nc(N3CCC(CN(C)S(C)(=O)=O)(c4ccccc4)CC3)nc3c2[S+]([O-])CC3)CCC1=O` (some centres unmarked) [Example 270, N-methyl-N-{1-[4-(1-methyl-6-oxo-piperidin-3-ylamino)-5-oxo-6,7-dihydro-5H-5λ^4-thieno[3,2-d]pyrimidin-2-yl]-4-phenylpiperidin-4-ylmethyl}-methanesulphonamide], the inhibition at 1 µM was 95%.
